Where two headings read alike, the source gives them in different places. Marks after values point to notes of the source that are not given here.
Legend:
Assay type in all cases: physicochemical
[1] = XPS phosphorus over metal ratio on Titanium grade 4 cylinders
Description: XPS analyses were performed on an Axis Ultra spectrometer from Kratos (Kratos, Manchester, U.K.) equipped with a concentric hemispherical analyzer and using a monochromatized aluminum anode X-ray source (Al Kα1,2 1486.6 eV, full width at half maximum, fwhm=0.85 eV, 15 kV, 150 W). The samples were investigated under ultrahigh vacuum conditions: 10^−8-10^−7 Pa. Spectra were taken at a 90° takeoff angle with respect to the surface. A sample area of 300×700 μm^2 or 700×700 μm^2 was analyzed with a pass energy of 80.0 eV for survey scans. The spectrometer was calibrated by using Cu 2p3/2 (932.7 eV) and Au 4f7/2 (84.0 eV) signals. Surface sensitivity factors used to determine the atomic concentrations were those of the instrument. Spectra were peak fitted after background subtraction by assuming a Gaussian/Lorentzian (90-70/10-30) peak shape. All peaks between 0 eV to 1200 eV were inspected.
Two Titanium grade 4 cylinders (bulk composition atomic concentration Titanium 100%; length 6.0 mm, diameter 2.4 mm) were provided with a roughened surface, produced by sand blasting and acid etching according to industry standards. The cylinders were immersed in 6 ml of a 2% (v/v) aqueous solution of deconex 15 PF-x (which is a phosphate free, potassium hydroxide based standard cleaning agent). The solution was placed in an ultrasonic bath (output frequency 30 kHz) and sonicated at 65° C. for 15 min. The cylinders were removed from the cleaning agent solution and rinsed with water as follows: 2 times with 10 ml, swirling at room temperature; 4 times with 10 ml, sonicating for 2 min at 65° C.; 1 time with 10 ml, swirling at room temperature. The cylinders were then placed into 6 ml of a 0.7 mM aqueous solution of 1,1,3,3-propane tetraphosphonic acid. The solution was placed in the ultrasonic bath and sonicated at 65° C. for 15 min. The cylinders were rinsed with water as follows: 2 times with 10 ml, swirling at room temperature; 1 time with 10 ml, sonicating for 2 min at 65° C.; 1 time with 10 ml, swirling at room temperature. The cylinders were dried in a desiccator over P2O5 and under vacuum (ca 20 mbar) for at least 3 hours.
Two Titanium grade 4 cylinders (bulk composition atomic concentration Titanium 100%; length 6.0 mm, diameter 2.4 mm) were provided with a roughened surface, produced by sand blasting and acid etching according to industry standards. The cylinders were immersed in 6 ml of a 2% (v/v) aqueous solution of deconex 15 PF-x (which is a phosphate free, potassium hydroxide based standard cleaning agent). The solution was placed in an ultrasonic bath (output frequency 30 kHz) and sonicated at room temperature for 15 min. The cylinders were removed from the cleaning agent solution and rinsed with water as follows: 2 times with 10 ml, swirling at room temperature; 4 times with 10 ml, sonicating for 2 min at room temperature; 1 time with 10 ml, swirling at room temperature. The cylinders were then placed into 6 ml of a 0.7 mM aqueous solution of 1,1,3,3-propane tetraphosphonic acid. The solution was swirled thoroughly and left to stand at room temperature for 15 min. The cylinders were rinsed with water as follows: 2 times with 10 ml, swirling at room temperature; 1 time with 10 ml, sonicating for 2 min at room temperature; 1 time with 10 ml, swirling at room temperature. The cylinders were dried in a desiccator over P2O5 and under vacuum (ca 20 mbar) for at least 3 hours.

[2] = XPS phosphorus over metal ratio on Titanium grade 5 dental implant (prospective data); details: 0.5 mM, sonicated 65° C. 10 min, Metal = Ti2p + Al2s + V2p
Description: A Titanium grade 5 dental implant (bulk composition atomic concentration Titanium 90%, Aluminum 6%, Vanadium 4%; length 11.0 mm, diameter 3.75 mm) is provided with a roughened surface, produced by sand blasting and acid etching according to industry standards. The dental implant is immersed in 30 ml of a 2% (v/v) aqueous solution of deconex 15 PF-x (which is a phosphate free, potassium hydroxide based standard cleaning agent). The solution is placed in an ultrasonic bath (output frequency 30 kHz) and sonicated at 65° C. for 15 min. The implant is removed from the cleaning agent solution and rinsed with water as follows: 2 times with 30 ml, swirling at room temperature; 4 times with 30 ml, sonicating for 2 min at 65° C.; 1 time with 30 ml, swirling at room temperature. […] The solution is placed in the ultrasonic bath and sonicated at 65° C. for 10 min. The implant is rinsed with water as follows: 2 times with 10 ml, swirling at room temperature; 1 time with 10 ml, sonicating for 2 min at 65° C.; 1 time with 10 ml, swirling at room temperature. The dental implant is dried in a desiccator over P2O5 and under vacuum (ca 20 mbar) for at least 3 hours. The samples are analyzed by X-ray photoelectron spectroscopy (XPS). Same analysis conditions as described in Example 8 are used.

[3] = as above; details: room temperature comparative process
[4] = Concentration 2 mM, sonicated 65° C. 15 min, Metal = Ti2p

Phosphorus/Metal ([1]; Concentration 1 mM, sonicated 65° C. 15 min, Metal = Ti2p) | SMILES | Phosphorus/Metal [1] | Phosphorus/Metal (surface treatment as described herein above) [2] | Phosphorus/Metal (surface treatment as described in Comp. Example 6) [3] | Phosphorus/Metal [1, 4]
 | O=P(O)(O)CP(=O)(O)O [Methylene-1,1-diphosphonic acid] | 0.10^b |  |  | 
 | O=P(O)(O)CCCP(=O)(O)O [PA-2, propane-1,3-diphosphonic acid] |  | 0.16-0.20 | 0.05-0.11 | 
 | CC(C)(C)P(=O)(O)O [PA-3, tert-butyl phosphonic acid] |  | 0.16-0.20 | 0.05-0.11 | 0.02^b
 | C=CCP(=O)(O)O [PA-4, 1-propene-3-phosphonic acid] |  | 0.16-0.20 | 0.05-0.11 | 
 | O=P(O)(O)C1CCCCC1 [PA-5, 1-cyclohexyl phosphonic acid] |  | 0.16-0.20 | 0.05-0.11 | 
 | O=P(O)(O)c1ccccc1 [PA-6, phenyl-1-phosphonic acid] |  | 0.16-0.20 | 0.05-0.11 | 0.03^b
 | NC(CP(=O)(O)O)C(=O)O (centres unmarked) [PA-8, 2-amino-3-phosphonopropionic acid] |  | 0.16-0.20 | 0.05-0.11 | 
 | O=C(CP(=O)(O)O)Oc1ccccc1C(=O)O [PA-9, 2-(2-phosphonoacetoxy)benzoic acid] |  | 0.16-0.20 | 0.05-0.11 | 
0.09^b | CC(O)(P(=O)(O)O)P(=O)(O)O [PA-10, etidronic acid, reference compound] |  | 0.16-0.20 | 0.05-0.11 | 
